Experimental data from patent US8084649B2, “Herbicides” (Syngenta Crop Protection, inc., priority 2007, dated 2011).

How the values were obtained:
Format in all cases: in vivo
[1] = test system: Alopecurus myosuroides (ALOMY); assay: Pre-emergence herbicidal activity, glasshouse pot test; settings: Alopecurus myosuroides, 480 h, rate 500 g/ha, evaluated after 20 days, read-out: Pre-emergence activity, ALOMY (100=total damage to plant; 0=no damage to plant)
Outline: (§1)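 Test compound, taken up in acetone with an Emulsogen EL/NMP/dipropylene glycol monomethyl ether/X-77 formulant and diluted with water, was sprayed onto soil of freshly sown pots after one day of cultivation. Evaluation at 20 days used a 0–100 injury rating.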

[2] = test system: Avena fatua (AVEFA); assay: as above; settings: Avena fatua, 480 h, rate 500 g/ha, evaluated after 20 days, read-out: Pre-emergence activity, AVEFA (100=total damage to plant; 0=no damage to plant)
Outline: as §1

[3] = test system: Digitaria sanguinalis (DIGSA); assay: as above; settings: Digitaria sanguinalis, 480 h, rate 500 g/ha, evaluated after 20 days, read-out: Pre-emergence activity, DIGSA (100=total damage to plant; 0=no damage to plant)
Outline: as §1

[4] = test system: Echinochloa crus-galli (ECHCG); assay: as above; settings: Echinochloa crus-galli, 480 h, rate 500 g/ha, evaluated after 20 days, read-out: Pre-emergence activity, ECHCG (100=total damage to plant; 0=no damage to plant)
Outline: as §1

[5] = test system: Lolium perenne (LOLPE); assay: as above; settings: Lolium perenne, 480 h, rate 500 g/ha, evaluated after 20 days, read-out: Pre-emergence activity, LOLPE (100=total damage to plant; 0=no damage to plant)
Outline: as §1

[6] = test system: Setaria faberi (SETFA); assay: as above; settings: Setaria faberi, 480 h, rate 500 g/ha, evaluated after 20 days, read-out: Pre-emergence activity, SETFA (100=total damage to plant; 0=no damage to plant)
Outline: as §1

[7] = test system: Alopecurus myosuroides (ALOMY); assay: Post-emergence herbicidal activity, glasshouse pot test; settings: Alopecurus myosuroides, rate 500 g/ha, evaluated after 14 or 15 days, read-out: Post-emergence activity, ALOMY (100=total damage to plant; 0=no damage to plant)
Outline: (§2)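 Foliar application to ten-day-old pot-grown seedlings; formulation: acetone plus solvent/surfactant blend (Emulsogen EL, NMP, DPGME, X-77), diluted in water. Scoring 14/15 d post-spray, 0–100% damage.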

[8] = test system: Avena fatua (AVEFA); assay: as above; settings: rate 500 g/ha, evaluated after 14 or 15 days; for pest or weed control at 500 g/ha: Avena fatua, read-out: Post-emergence activity, AVEFA (100=total damage to plant; 0=no damage to plant)
Outline: as §2

[9] = test system: Digitaria sanguinalis (DIGSA); assay: as above; settings: Digitaria sanguinalis, rate 500 g/ha, evaluated after 14 or 15 days, read-out: Post-emergence activity, DIGSA (100=total damage to plant; 0=no damage to plant)
Outline: as §2

[10] = test system: Echinochloa crus-galli (ECHCG); assay: as above; settings: Echinochloa crus-galli, rate 500 g/ha, evaluated after 14 or 15 days, read-out: Post-emergence activity, ECHCG (100=total damage to plant; 0=no damage to plant)
Outline: as §2

[11] = test system: Lolium perenne (LOLPE); assay: as above; settings: Lolium perenne, rate 500 g/ha, evaluated after 14 or 15 days, read-out: Post-emergence activity, LOLPE (100=total damage to plant; 0=no damage to plant)
Outline: as §2

[12] = test system: Setaria faberi (SETFA); assay: as above; settings: Setaria faberi, rate 500 g/ha, evaluated after 14 or 15 days, read-out: Post-emergence activity, SETFA (100=total damage to plant; 0=no damage to plant)
Outline: as §2

Row | Compound | pest or weed control at 500 g/ha [1] | pest or weed control at 500 g/ha [2] | pest or weed control at 500 g/ha [3] | pest or weed control at 500 g/ha [4] | pest or weed control at 500 g/ha [5] | pest or weed control at 500 g/ha [6] | pest or weed control at 500 g/ha [7] | pest or weed control at 500 g/ha [8] | pest or weed control at 500 g/ha [9] | pest or weed control at 500 g/ha [10] | pest or weed control at 500 g/ha [11] | pest or weed control at 500 g/ha [12] | Post-emergence activity, AVEFA (100=total damage to plant; 0=no damage to plant) [8]
1 | CCSC(C)CC1CC(=O)C(c2c(C)cc(C)cc2CC)=C(O)C1 (stereo not drawn) [Compound T1] | 60% | 30% | 70% | 100% | 70% | 70% | 70% | 70% | 90% | 90% | 70% | 80% | 
2 | CCc1cc(CC)c(C2=C(O)CC3(CCOCC3)CC2=O)c(CC)c1 [Compound T2] | 80% | 70% | 100% | 100% | 100% | 90% | 80% | 80% | 100% | 100% | 80% | 80% | 
3 | Cc1ccc(-c2ccc(Cl)cc2)cc1C1=C(O)CC2(CCOCC2)CC1=O [Compound T3] | 40% | 50% | 100% | 100% | 60% | 100% | 80% | 80% | 100% | 100% | 80% | 100% | 
4 | Cc1cc(C)c(C2=C(O)CC3(CCS(=O)(=O)CC3)CC2=O)c(C)c1 [Compound T5] | 70% | 10% | 70% | 40% | 60% | 30% | 70% | 20% | 70% | 60% | 70% | 70% | 
5 | Cc1cc(C)c(C2=C(O)CC3(CCSCC3)CC2=O)c(C)c1 [Compound T6] | 20% | 30% | 10% | 10% | 0% | 10% | 20% | 10% | 90% | 80% | 10% | 80% | 
6 | CCSC(C)CC1CC(=O)C(c2c(CC)cc(C)cc2CC)=C(O)C1 (stereo not drawn) [Compound T7, 2-(2,6-diethyl-4-methylphenyl)-5-[2-(ethylthio)propyl]cyclohexane-1,3-dione] | 100% | 100% | 100% | 100% | 100% | 100% | 100% | 90% | 90% | 90% | 100% | 100% | 
7 | CCc1cc(C)cc(C)c1C1=C(O)CC(CC(C)SC)CC1=O (stereo not drawn) [Compound T10] | 100% | 70% | 100% | 100% | 100% | 100% | 100% | 100% | 90% | 90% | 100% | 90% | 
8 | CSCCC1CC(=O)C(c2c(C)cc(C)cc2C)=C(O)C1 (stereo not drawn) [Compound T12] | 70% | 20% | 0% | 30% | 40% | 0% | 80% | 30% | 90% | 80% | 60% | 90% | 
9 | CCc1cc(C)cc(C)c1C1=C(O)CC(CCSC)CC1=O (stereo not drawn) [Compound T13] | 100% | 70% | 100% | 80% | 100% | 80% | 90% | 80% | 100% | 90% | 80% | 90% | 
10 | CCc1cc(C)cc(CC)c1C1=C(O)CC(CCS(C)(=O)=O)CC1=O (stereo not drawn) [Compound T14] | 90% | 100% | 100% | 100% | 100% | 100% | 90% |  | 100% | 100% | 90% | 100% | 90
11 | CCc1cc(C)cc(CC)c1C1=C(O)CC(CC[S+](C)[O-])CC1=O (stereo not drawn) [Compound T15] | 100% | 80% | 100% | 100% | 100% | 90% | 90% | 80% | 100% | 100% | 100% | 80% | 
12 | CCc1cc(C)cc(CC)c1C1=C(O)CC(CCSC)CC1=O (stereo not drawn) [Compound T16] | 90% | 70% | 100% | 90% | 100% | 100% | 100% | 80% | 100% | 70% | 90% | 90% | 
13 | CCc1cc(C)cc(CC)c1C1=C(O)CC(CC(C)SC)CC1=O (stereo not drawn) [Compound T17] | 90% | 90% | 100% | 100% | 100% | 100% | 0% | 90% | 100% | 90% | 100% | 90% | 
14 | CSC(C)CC1CC(=O)C(c2c(C)cc(C)cc2C)=C(O)C1 (stereo not drawn) [Compound T18] | 20% | 10% | 60% | 70% | 10% | 40% | 60% | 60% | 80% | 70% | 70% | 80% | 
